{
  "source": "patent US12116343B2",
  "about": "“Inhibitors of APOL1 and methods of using same” (Vertex Pharmaceuticals Incorporated, priority 2020, dated 2024)",
  "data": [
    {"target": "T1, APOL1 G1 Protein (Homo sapiens, UniProt O14791, I384M/S342G)", "T1 sequence (O14791 28-398 S342G/I384M)": "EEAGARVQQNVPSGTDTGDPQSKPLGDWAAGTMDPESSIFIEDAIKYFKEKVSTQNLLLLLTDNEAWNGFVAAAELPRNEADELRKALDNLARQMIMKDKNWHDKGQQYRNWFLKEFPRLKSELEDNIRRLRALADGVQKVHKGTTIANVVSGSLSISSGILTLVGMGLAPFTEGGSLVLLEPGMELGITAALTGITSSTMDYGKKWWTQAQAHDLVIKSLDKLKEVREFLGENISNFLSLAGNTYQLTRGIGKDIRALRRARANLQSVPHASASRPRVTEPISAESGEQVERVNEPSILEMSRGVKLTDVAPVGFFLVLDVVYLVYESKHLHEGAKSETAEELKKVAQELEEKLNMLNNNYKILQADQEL", "test": "Trypanosoma brucei brucei lysis assay using APOL1 recombinant protein (AlamarBlue viability)", "format": "cell-based", "conditions": "Table 24, Compounds 287 to 465; read-out: Trypanosoma Assay (IC50)", "how_it_was_run": "(§1)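 Bloodstream-form T. b. brucei Lister 427 VSG 221, 120,000 parasites/well in phenol red-free, FBS-free medium, lysed by recombinant APOL1 G1 with compound (10-point dose response, 0.1% DMSO final). Viability read by AlamarBlue fluorescence against a parasite standard curve.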", "units": {"IC50": "nM"}, "values": [
      {"smiles": "NC(=O)CNC[C@H]1C[C@@H](c2c(-c3ccc(F)cc3)[nH]c3c(F)cc(F)cc32)C1", "note": "[Compound 447]", "IC50": "< 250"}
    ]},
    {"target": "T1, APOL1 G1 Protein", "test": "Trypanosoma brucei brucei lysis assay using APOL1 recombinant protein (AlamarBlue viability)", "format": "cell-based", "conditions": "Trypanosoma brucei brucei lysis, recombinant APOL1, AlamarBlue; read-out: Trypanosoma Assay (IC50)", "how_it_was_run": "as §1", "units": {"IC50": "nM"}, "values": [
      {"smiles": "NCCCNC(=O)[C@H]1C[C@H](c2c(-c3ccc(F)cc3)[nH]c3c(F)cc(F)cc32)C1", "note": "[Compound 4]", "IC50": "< 250"},
      {"smiles": "CN1CCN(C(=O)CNC(=O)[C@H]2C[C@H](c3c(-c4ccc(F)cc4)[nH]c4c(F)cc(F)cc43)C2)CC1", "note": "[Compound 67]", "IC50": "> 1000"},
      {"smiles": "NC(=O)CNC(=O)[C@H]1C[C@H](c2c(-c3ccc(F)cc3)[nH]c3c(F)cc(F)cc32)C1", "note": "[Compound 1, N-(2-amino-2-oxo-ethyl)-3-[5,7-difluoro-2-(4-fluorophenyl)-1H-indol-3-yl]cyclobutanecarboxamide]", "IC50": "< 250"},
      {"smiles": "NCC(O)CNC(=O)[C@H]1C[C@H](c2c(-c3ccc(F)cc3)[nH]c3c(F)cc(F)cc32)C1", "note": "(stereo partly drawn) [Compound 3]", "IC50": "250 to 1000"},
      {"smiles": "O=C([C@H]1C[C@H](c2c(-c3ccc(F)cc3)[nH]c3c(F)cc(F)cc32)C1)N(CCO)C1CC1", "note": "[Compound 52]", "IC50": "250 to 1000"},
      {"smiles": "CC1C[C@H](NC(=O)[C@H]2C[C@H](c3c(-c4ccc(F)cc4)[nH]c4c(F)cc(F)cc43)C2)C(=O)N1", "note": "(mixture of isomers) [Compound 84]", "IC50": "250 to 1000"},
      {"smiles": "CN1CC(CNC(=O)[C@H]2C[C@H](c3c(-c4ccc(F)cc4)[nH]c4c(F)cc(F)cc43)C2)CC1=O", "note": "(stereo partly drawn) [Compound 70]", "IC50": "> 1000"},
      {"smiles": "NC(=O)C1CCCCN1C(=O)[C@H]1C[C@H](c2c(-c3ccc(F)cc3)[nH]c3c(F)cc(F)cc32)C1", "note": "(stereo partly drawn) [Compound 92]", "IC50": "250 to 1000"},
      {"smiles": "O=C1NCCC1NC(=O)[C@H]1C[C@H](c2c(-c3ccc(F)cc3)[nH]c3c(F)cc(F)cc32)C1", "note": "(stereo partly drawn) [Compound 2]", "IC50": "< 250"},
      {"smiles": "Cc1cc(CNC(=O)[C@H]2C[C@H](c3c(-c4ccc(F)cc4)[nH]c4c(F)cc(F)cc43)C2)nn1C", "note": "[Compound 73]", "IC50": "250 to 1000"},
      {"smiles": "C[C@@H](NC(=O)[C@H]1C[C@H](c2c(-c3ccc(F)cc3)[nH]c3c(F)cc(F)cc32)C1)C(=O)N(C)C", "note": "[Compound 61]", "IC50": "> 1000"},
      {"smiles": "CN(CC(C)(C)O)C(=O)[C@H]1C[C@H](c2c(-c3ccc(F)cc3)[nH]c3c(F)cc(F)cc32)C1", "note": "[Compound 93]", "IC50": "> 1000"},
      {"smiles": "O=C(NC(CO)CF)[C@H]1C[C@H](c2c(-c3ccc(F)cc3)[nH]c3c(F)cc(F)cc32)C1", "note": "(stereo partly drawn) [Compound 78]", "IC50": "< 250"},
      {"smiles": "NC(=O)C1(NC(=O)[C@H]2C[C@H](c3c(-c4ccc(F)cc4)[nH]c4c(F)cc(F)cc43)C2)CC1", "note": "[Compound 56]", "IC50": "250 to 1000"},
      {"smiles": "CC(C)(NC(=O)[C@H]1C[C@H](c2c(-c3ccc(F)cc3)[nH]c3c(F)cc(F)cc32)C1)C(=O)N1CCOCC1", "note": "[Compound 66]", "IC50": "> 1000"},
      {"smiles": "CCOCC1(CNC(=O)[C@H]2C[C@H](c3c(-c4ccc(F)cc4)[nH]c4c(F)cc(F)cc43)C2)CC1", "note": "[Compound 55]", "IC50": "> 1000"},
      {"smiles": "CC(NC(=O)[C@H]1C[C@H](c2c(-c3ccc(F)cc3)[nH]c3c(F)cc(F)cc32)C1)C(N)=O", "note": "(mixture of isomers) [Compound 68]", "IC50": "250 to 1000"},
      {"smiles": "Cn1cnc(CNC(=O)[C@H]2C[C@H](c3c(-c4ccc(F)cc4)[nH]c4c(F)cc(F)cc43)C2)c1", "note": "[Compound 48]", "IC50": "< 250"},
      {"smiles": "O=C1CC(NC(=O)[C@H]2C[C@H](c3c(-c4ccc(F)cc4)[nH]c4c(F)cc(F)cc43)C2)CN1", "note": "(mixture of isomers) [Compound 44]", "IC50": "> 1000"},
      {"smiles": "O=C(OC1CN(C(=O)[C@H]2C[C@H](c3c(-c4ccc(F)cc4)[nH]c4c(F)cc(F)cc43)C2)C1)C1CCOCC1", "note": "[Compound 85]", "IC50": "< 250"},
      {"smiles": "CN(C(=O)[C@H]1C[C@H](c2c(-c3ccc(F)cc3)[nH]c3c(F)cc(F)cc32)C1)C1(CO)CC1", "note": "[Compound 58]", "IC50": "250 to 1000"},
      {"smiles": "O=C1NCC[C@H]1NC(=O)[C@H]1C[C@H](c2c(-c3ccc(F)cc3)[nH]c3c(F)cc(F)cc32)C1", "note": "[Compound 45]", "IC50": "< 250"},
      {"smiles": "Cn1ccc(CNC(=O)[C@H]2C[C@H](c3c(-c4ccc(F)cc4)[nH]c4c(F)cc(F)cc43)C2)n1", "note": "[Compound 71]", "IC50": "< 250"},
      {"smiles": "O=C(NCCO)[C@H]1C[C@H](c2c(-c3ccc(F)cc3)[nH]c3c(F)cc(F)cc32)C1", "note": "[Compound 46, 3-[5,7-difluoro-2-(4-fluorophenyl)-1H-indol-3-yl]-N-(2-hydroxyethyl)cyclobutanecarboxamide]", "IC50": "< 250"},
      {"smiles": "O=C([C@H]1C[C@H](c2c(-c3ccc(F)cc3)[nH]c3c(F)cc(F)cc32)C1)N1C[C@@H](CO)OCC12CC2", "note": "[Compound 57]", "IC50": "> 1000"},
      {"smiles": "CC(NC(=O)[C@H]1C[C@H](c2c(-c3ccc(F)cc3)[nH]c3c(F)cc(F)cc32)C1)c1ccnn1C", "note": "(mixture of isomers) [Compound 76]", "IC50": "> 1000"},
      {"smiles": "NC(=O)[C@@H]1CCCN1C(=O)[C@H]1C[C@H](c2c(-c3ccc(F)cc3)[nH]c3c(F)cc(F)cc32)C1", "note": "[Compound 88]", "IC50": "> 1000"},
      {"smiles": "O=C(NCC1(O)CCCCC1)[C@H]1C[C@H](c2c(-c3ccc(F)cc3)[nH]c3c(F)cc(F)cc32)C1", "note": "[Compound 80]", "IC50": "> 1000"},
      {"smiles": "COCc1cc(CNC(=O)[C@H]2C[C@H](c3c(-c4ccc(F)cc4)[nH]c4c(F)cc(F)cc43)C2)n[nH]1", "note": "[Compound 72]", "IC50": "> 1000"},
      {"smiles": "O=C([C@H]1C[C@H](c2c(-c3ccc(F)cc3)[nH]c3c(F)cc(F)cc32)C1)N1CCC(O)(CO)CC1", "note": "[Compound 87]", "IC50": "> 1000"},
      {"smiles": "CC(O)CN(C)C(=O)[C@H]1C[C@H](c2c(-c3ccc(F)cc3)[nH]c3c(F)cc(F)cc32)C1", "note": "(stereo partly drawn) [Compound 90]", "IC50": "250 to 1000"},
      {"smiles": "C[C@H](O)CNC(=O)[C@H]1C[C@H](c2c(-c3ccc(F)cc3)[nH]c3c(F)cc(F)cc32)C1", "note": "[Compound 82]", "IC50": "250 to 1000"}
    ]}
  ]
}
